These results are taken from publication PMC9026082, “Madecassic Acid—A New Scaffold for Highly Cytotoxic Agents” (International Journal of Molecular Sciences, 2022).

For orientation: EC50 means the midpoint of the concentration-response curve. The melting point is the temperature, or range, at which the solid turns liquid.

One data set deals with A375 (melanoma). Nature of the data set: SRB cytotoxicity assay, A375. It counts as cell-based, human. The note with it: Homo sapiens, A-375, 72 h, 72 h of treatment, cut-off 30 μM. The text has this:
(§1) To assess their cytotoxicity parent, triterpenoic acids 1–3, their acetates 4–6, the amides 7–18, as well as the respective rhodamine B conjugates 19–24 were subjected to SRB assays employing several human tumor cell lines (A375, HT29, MCF-7, A2780, and HeLa) as well as non-malignant fibroblasts (NIH 3T3).
(§2) A detailed description of materials and methods can be found in the Supplementary Materials File. For biological screening, the cell lines were obtained from ATCC: A375 (CRL-1619), HT29 (HTB-38), MCF7 (HTP-22), A2780 (HTP-77), HeLa (CCL-2), and NIH 3T3 (CRL-1573) ^13C NMR spectra (Supplementary Materials) were recorded as APT spectra showing CH and CH3 groups as positive signals and CH2 groups and quaternary carbons as negative signals. […]
(§3) 2. Cytotoxicity assay (SRB assay)
(§4) The cell lines were obtained from Department of oncology (Martin-Luther-University Halle Wittenberg). Cultures were maintained as monolayers in RPMI 1640 medium with L-glutamine (Capricorn Scientific GmbH, Ebsdorfergrund, Germany) supplemented with 10% heat inactivated fetal bovine serum (Sigma -Aldrich Chemie GmbH, Steinheim, Germany) and penicillin/streptomycin (1%, Capricorn Scientific GmbH, Ebsdorfergrund, Germany) at 37 °C in a humidified atmosphere with 5% CO 2.
(§5) The cytotoxicity of the compounds was eva luated using the sulforhodamine -B (Kiton-Red S, ABCR) micro culture colorimetric assay using […] in 96 -well plates with the seeding of the cells on day 0 applying appropriate cell densities to prevent confluence of the cells during the period of the experiment. On day 1, the cells were treated with six di fferent concentrations (1, 3, 7, 12, 20 and 30 μM); thereby, the final concentration of DMSO was always < 0.5%, generally regarded as non-toxic to the cells. On day 4, the supernatant medium was discarded; the cells were fixed with 10 % trichloroacetic acid. After another day at 4 °C, the cells were washed in a strip washer and dyed with the SRB solution (100 μL, 0.4% in 1% acetic acid) for about 20 min to be followed by washing of the plates (four times, 1% acetic acid) and air -drying […]
(§6) overnight. Furthermore, tris base solution (200 μL, 10 mM) was added to each well and absorbance was measured at λ = 570 nm employing a reader (96 wells, Tecan Spectra, Crailsheim, Germany). The EC50 values were averaged from three independent experiments performed each in triplicate calculated from semi logarithmic dose response curves applying a non-linear four-parameter Hills-slope equation (GraphPad Prism5; variables top and bottom were set to 100 and 0, respectively).

In data set [1] the test system is HT29 (colorectal carcinoma). Nature of the data set: SRB cytotoxicity assay, HT29. It counts as cell-based, human. As to conditions: Homo sapiens, HT-29, 72 h of treatment, cut-off 30 μM.
Excerpt: as §1, §2, §3, §4, §5, §6
(The SRB assay estimates cell density from bound dye.)

Data set [2] deals with MCF7 (breast adenocarcinoma). Put plainly: SRB cytotoxicity assay, MCF7. The note with it: Homo sapiens, MCF7, 72 h of treatment, cut-off 30 μM. It counts as cell-based, human.
Excerpt: as §1, §2, §3, §4, §5, §6

Data set [3] deals with A2780 (ovarian carcinoma). Put plainly: SRB cytotoxicity assay, A2780. It counts as cell-based, human. As to conditions: for EC50: Homo sapiens, A2780, SRB assay, 72 h of treatment, cut-off 30 μM.
Excerpt: as §1, §2, §3, §4, §5, §6

Data set [4] relates to HeLa (cervical carcinoma). Put plainly: SRB cytotoxicity assay, HeLa. It counts as cell-based, human. As to conditions: Homo sapiens, HeLa, 72 h of treatment, cut-off 30 μM.
Excerpt: as §1, §2, §3, §4, §5, §6

Data set [5] relates to NIH 3T3 (non-malignant fibroblasts). Nature of the data set: SRB cytotoxicity assay, NIH 3T3. It counts as cell-based. As to conditions: Mus musculus, NIH3T3, 72 h of treatment, cut-off 30 μM.
Excerpt: as §1, §2, §3, §4, §5, §6

The test system of data set [6] is several human tumor cell lines (A375, HT29, MCF-7, A2780, and HeLa). Nature of the data set: SRB assays, cell line not given. It counts as cell-based. The note with it: cell line not stated.
Excerpt: To assess their cytotoxicity parent, triterpenoic acids 1–3, their acetates 4–6, the amides 7–18, as well as the respective rhodamine B conjugates 19–24 were subjected to SRB assays employing several human tumor cell lines (A375, HT29, MCF-7, A2780, and HeLa) as well as non-malignant fibroblasts (NIH 3T3). […]
as §3, §4, §5, §6

The subject of another data set is A375 cells. Nature of the data set: Staining experiments (acridine orange, rhodamine 123, Hoechst 33,342). It counts as cell-based, human. As to conditions: 48 h, same area as rhodamine 123, not in nucleus (Hoechst 33,342). As to the method: The mode of action—as previously shown for several triterpene-rhodamine B conjugates—is to act as mitocans. […] Thereby, Hoechst 33,342 binds selectively to DNA while rhodamine 123 is usually applied for dying mitochondria.
Figure 1 Staining experiments: A375 cells, 48 h; (A): control; (B): in the presence of 24; (C): Hoechst 33,342 staining; (D): merged (Hoechst 33,342, control); and (E): in the presence of rhodamine 123.

On to `CC1(C)CC[C@]2(C(=O)O)CC[C@]3(C)C(=CC[C@@H]4[C@@]5(C)CC[C@H](O)[C@@](C)(CO)[C@@H]5CC[C@]43C)[C@@H]2C1` [Compound 2, (3β,4α) 3,23-Dihydroxyolean-12-en-28-oic Acid], for which the EC50 in the data set with A375 (melanoma) was 26.3 ± 1.8 µM; in [1] it was over 30 µM; in data set [2] it was 25.7 ± 1.9 µM; in data set [3], 19.6 ± 1.6 µM; in data set [4], over 30 µM; in data set [5], over 30 µM.
Regarding `CC(=O)OC[C@@]1(C)[C@@H]2CC[C@]3(C)[C@H](CC=C4[C@@H]5CC(C)(C)CC[C@]5(C(=O)O)CC[C@]43C)[C@@]2(C)CC[C@@H]1OC(C)=O` [Compound 5, (3β,4α) 3,23-Bis(acetyloxy)olean-12-en-28-oic Acid], the melting point lay within 185 to 189 °C. A half-maximal effect with A375 (melanoma) (EC50) was put at 17.1 ± 1.1 µM. Further, a half-maximal effect in data set [1] (EC50) was put at 19 ± 0.6 µM. Besides, it took 9.8 ± 1 µM to reach a half-maximal effect in data set [2] (EC50). Besides, it took 11.9 ± 0.5 µM to reach a half-maximal effect in data set [3] (EC50). For the same molecule, in [4], the EC50 was 12.4 ± 0.7 µM. The molecule also gave an EC50 in data set [5] of 9.6 ± 0.6 µM.
Consider `CCN(CC)c1ccc2c(-c3ccccc3C(=O)N3CCCN(C(=O)[C@]45CC[C@@H](C)[C@H](C)[C@H]4C4=CC[C@@H]6[C@@]7(C)C[C@@H](OC(C)=O)[C@H](OC(C)=O)[C@@](C)(COC(C)=O)[C@@H]7[C@H](O)C[C@@]6(C)[C@]4(C)CC5)CC3)c3ccc(=[N+](CC)CC)cc-3oc2c1` [Compound 24, N-{6-Diethylamino-9-[2-({4[ (2α,3β,4α,6β)-2,3,23-tris(acetyloxy)-6-hydroxy-28-oxours-12-en-28-yl)-1,4-diazepan-1-yl}carbonyl]phenyl]-3H-xanthen-3-ylidene)-N-ethylethanaminium Chloride], for which the EC50 in the data set on A375 (melanoma) was 0.0095 ± 0.0015 µM; in data set [1] it was 0.0127 ± 0.0038 µM; in [2] it was 0.0162 ± 0.0045 µM; in [3], 0.0029 ± 0.0005 µM; in data set [4], 0.0526 ± 0.0151 µM; in data set [5] it was 0.101 ± 0.0231 µM. Further, the “times more cytotoxic than parent madecassic acid” value in data set [3] (A2780 ovarian cancer cells) is “more than 10,000 times”; in data set [6], ~10,000 times. In the data set on A375 cells, the “mode of action / localization within the cells” value is “acts as a mitocan”.
